Data as given in patent US7217710B2, “Substituted pyrazolopyrimidines” (SmithKline Beecham Corporation, priority 2001, dated 2007).

Assays:
[1] = molecular target: T1, GST-TIE2 (intracellular domains of human TIE2) (Homo sapiens, UniProt Q02763); assay: TIE-2 Enzyme Assay (TIE2-E2), LANCE method; type: biochemical; settings: read-out: TIE2 PIC50 TIE2-E2 assay
T1 construct: made in house
Excerpt: TIE-2 Enzyme Assay (TIE2-E2
The TIE-2 enzyme assay uses the LANCE method (Wallac) and GST-TIE2, baculovirus-expressed recombinant constructs of the intracellular domains of human TIE2 (amino acids 762–1104, GenBank Accession # L06139) tagged by GST). The method measures the ability of the purified enzymes to catalyse the transfer of the γ-phosphate from ATP onto tyrosine residues in a biotinylated synthetic peptide, D1–15 (biotin-C6-LEARLVAYEGWVAGKKKamide). This peptide phosphorylation is detected using the following procedure: for enzyme preactivation, GST-TIE2 is incubated for 2 hours at room temperature with 80 μM ATP, 10 mM MgCl2, 0.1 mg/ml BSA, 0.01% Tween 20 and 1 mM DTT in 100 mM HEPES buffer (pH7.4). 5 nM preactivated GST-TIE2 is incubated for 2 hours at room temperature in 96 well plates with 1 uM D1–15 peptide, 80 uM ATP, 10 mM MgCl2, 0.1 mg/ml BSA, 0.01% Tween 20 and titrated test compound (diluted from a 10 mM stock in DMSO, final DMSO concentration is 2.4%) in 100 mM HEPES (pH7.4). The reaction is stopped by the addition of EDTA (final concentration 45 mM). Streptavidin linked-APC (allophycocyanin, PerkinElmer) and europium-labeled anti-phosphotyrosine antibody (PerkinElmer) are then added at the final concentration of 8 nM and 1 nM, respectively. The APC signal is measured using an Wallac Multilabel 1420 counter. (Wallac Berthold Japan). The percent inhibition of activity is calculated relative to blank control wells. The concentration of test compound that inhibits 50% of activity (IC50) is interpolated using nonlinear regression (Levernberg-Marquardt) and the equation, y=Vmax (1−x/(K+x))+Y2, where “K” is equal to the IC50. The IC50 values are converted to pIC50 values, i.e., −log IC50 in Molar concentration.

[2] = molecular target: T2, catalytic domain of human VEGFR3 (Homo sapiens, UniProt P35916, H890Q); assay: VEGFR-3 Homogenous Time-Resolved Fluorescence Assay (VEGFR-3-HTRF); type: biochemical; settings: read-out: VEGFR3 PIC50 VEGFR-3-HTRF assay
T2 construct: made in house; host or cells: Sf9 insect cells (baculovirus, pFastBac1)
T2 sequence (P35916 with tags, fused parts or gaps isoform P35916-1 H890Q): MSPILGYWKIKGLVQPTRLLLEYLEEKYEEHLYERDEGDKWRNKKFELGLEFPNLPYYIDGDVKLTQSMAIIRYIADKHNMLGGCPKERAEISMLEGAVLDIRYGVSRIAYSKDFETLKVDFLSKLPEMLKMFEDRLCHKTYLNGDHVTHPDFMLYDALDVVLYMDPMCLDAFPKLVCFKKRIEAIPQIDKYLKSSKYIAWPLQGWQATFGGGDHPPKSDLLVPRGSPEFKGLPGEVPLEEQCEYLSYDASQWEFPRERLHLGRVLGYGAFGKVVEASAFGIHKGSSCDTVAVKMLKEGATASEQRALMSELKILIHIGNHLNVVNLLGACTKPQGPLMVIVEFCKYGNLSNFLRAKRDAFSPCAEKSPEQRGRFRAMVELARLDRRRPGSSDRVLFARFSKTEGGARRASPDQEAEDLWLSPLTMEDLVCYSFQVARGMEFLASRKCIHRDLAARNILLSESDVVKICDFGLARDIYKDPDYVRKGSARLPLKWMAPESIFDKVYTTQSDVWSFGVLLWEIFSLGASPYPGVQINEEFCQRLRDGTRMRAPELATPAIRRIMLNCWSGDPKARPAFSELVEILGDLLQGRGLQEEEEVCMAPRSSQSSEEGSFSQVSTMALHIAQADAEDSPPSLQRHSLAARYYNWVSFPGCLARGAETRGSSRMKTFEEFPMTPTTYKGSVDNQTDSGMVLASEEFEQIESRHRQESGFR
Excerpt: VEGFR—3-Homogenous Time-Resolved Fluorescence Assay (VEGFR-3-HTRF)
This assay assesses Vascular Endothelial Growth Factor 3 (VEGFR3) tyrosine kinase inhibitory activity in substrate phosphorylation assays. The assay examines the ability of small molecule organic compounds to inhibit the tyrosine phosphorylation of a peptide substrate.
The substrate phosphorylation assays use the VEGFR3 catalytic domain, which is expressed in Sf. 9 insect cells as an amino-terminal GST-tagged fusion protein. The catalytic domain of human VEGFR3 (AA residues #819–1298 based upon GenBank Accession #XM003852) is cloned by PCR from human Placenta Marathon Ready cDNA (Clontech). The PCR product is subcloned into pFastBac1 vector containing an N-terminal GST tag. The resulting pFB/GST/VEGFR3icd vector is used to generate a recombinant baculovirus for protein expression. The VEGFR3 catalytic domain translated sequence is:
Autophosphorylation allows enzymes to be fully activated prior to addition to peptide substrates. The assays are performed using enzyme that has been activated by autophosphorylation via preincubation in buffer with ATP and magnesium. Activated enzyme is then diluted and added to titrated compound and the substrate mix.
200 nM VEGFR3 enzyme is activated for 45 minutes at room temperature by incubating the enzyme in buffer containing 100 mM HEPES (pH7.2), 75 μM ATP, 0.3 mM DTT, 0.1 mg/mL BSA, and 10 mM MgCl2. After activation, VEGFR3 is diluted 100-fold into 2× dilution buffer: 200 mM HEPES (pH 7.5), 0.2 mg/mL BSA, 0.6 mM DTT. 20 μL of the diluted enzyme mix is added to 20 μL of 2× substrate mix (150 μM ATP, 20 mM MgCl2, 0.72 μM biotinylated peptide) in the assay plates. Final assay conditions are: 100 mM HEPES (pH 7.2), 75 μM ATP, 10 mM MgCl2, 0.1 mg/mL BSA, 0.3 mM DTT, 0.36 μM biotinylated peptide, and 1 nM VEGFR3 enzyme. Assay plates are incubated for 1.5 hours at room temperature before the addition of 30 μL 100 mM EDTA to the wells to stop the enzymatic reaction. 40 μL/well of HTRF mix are then added to the assay plates for the detection of phosphorylated substrate. Final assay concentrations are: 100 mM HEPES (pH7.2), 0.1 mg/mL BSA, 15 nM streptavidin-labeled allophycocyanin (PerkinElmer), and 1 nM europium-labeled anti-phosphotyrosine antibody (PerkinElmer). Assay plates are left unsealed and are counted in a Wallac Multilabel Counter 1420 (PerkinElmer).
The data for dose responses are plotted as % Control calculated with the data reduction formula 100*(U1–C2)/(C1–C2) versus concentration of compound where U is the unknown value, C1 is the average control value obtained for DMSO , and C2 is the average control value obtained for 0.1M EDTA. Data are fitted to the curve described by: y=((Vmax*x)/(K+x)) where Vmax is the upper asymptote and K is the IC50.

T1 sequence (Q02763 762-1104): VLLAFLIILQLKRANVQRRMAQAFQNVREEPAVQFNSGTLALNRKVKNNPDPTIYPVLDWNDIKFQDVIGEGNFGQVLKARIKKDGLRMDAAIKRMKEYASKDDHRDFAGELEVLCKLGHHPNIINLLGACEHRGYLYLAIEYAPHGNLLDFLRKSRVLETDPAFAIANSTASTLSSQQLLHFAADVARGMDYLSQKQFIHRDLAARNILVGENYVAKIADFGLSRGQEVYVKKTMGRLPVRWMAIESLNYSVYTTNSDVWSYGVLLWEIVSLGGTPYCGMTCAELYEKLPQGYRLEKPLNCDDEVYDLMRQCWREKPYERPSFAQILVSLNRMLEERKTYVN

| IC50 [1] | IC50 [2] | SMILES |
| --- | --- | --- |
| ≤ 0.0398 µM | 1 to 10 µM | Cn1nc(-c2ccc(NC(=O)Nc3cccc(C(F)(F)F)c3)cc2)c2cnc(NCCN3CCOCC3)nc21 [Example 42, 1-{4-[1-Methyl-6-(2-morpholin-4-yl-ethylamino)-1H-pyrazolo[3,4-d]pyrimidin-3-yl]-phenyl}-3-(3-trifluoromethyl-phenyl)-urea] |
| > 10 µM | – | CC1CCCCN1CCCNc1ncc2c(-c3ccc(NS(=O)(=O)c4cccc(Cl)c4Cl)cc3)nn(C)c2n1 (centres unmarked) [Example 104, 2,3-Dichloro-N-(4-{1-methyl-6-[3-(2-methyl-piperidin-1-yl)-propylamino]-1H-pyrazolo[3,4-d]pyrimidin-3-yl)-phenyl}-benzenesulfonamide] |
| > 10 µM | – | Cn1nc(-c2ccc(NS(=O)(=O)c3cccc(Cl)c3Cl)cc2)c2cnc(NCCCN3CCCC3)nc21 [Example 105, 2,3-Dichloro-N-{4-[1-methyl-6-(3-pyrrolidin-1-yl-propylamino)-1H-pyrazolo[3,4-d]pyrimidin-3-yl]-phenyl}-benzenesulfonamide] |
| > 10 µM | – | CN(C)CCCNc1ncc2c(-c3ccc(NS(=O)(=O)c4cccc(Cl)c4Cl)cc3)nn(C)c2n1 [Example 106, 2,3-Dichloro-N-{4-[1-methyl-6-(3-dimethylamino-propylamino)-1H-pyrazolo[3,4-d]pyrimidin-3-yl]-phenyl}-benzenesulfonamide] |
| > 10 µM | – | CN1CCCC1CCNc1ncc2c(-c3ccc(NS(=O)(=O)c4cccc(Cl)c4Cl)cc3)nn(C)c2n1 (centres unmarked) [Example 108, 2,3-Dichloro-N-(4-{1-methyl-6-[2-(1-methyl-pyrrolidin-2-yl)-ethylamino]-1H-pyrazolo[3,4-d]pyrimidin-3-yl]-phenyl}-benzenesulfonamide] |
| > 10 µM | – | Cn1nc(-c2ccc(NS(=O)(=O)c3cccc(Cl)c3Cl)cc2)c2cnc(NCCCCN3CCCC3)nc21 [Example 110, 2,3-Dichloro-N-{4-[1-methyl-6-(4-pyrrolidin 1-yl-butylamino)-1H-pyrazolo[3,4-d]pyrimidin-3-yl]-phenyl}-benzenesulfonamide] |
| 1 to 10 µM | > 10 µM | CN1CCN(CCCNc2ncc3c(-c4ccc(NS(=O)(=O)c5cccc(Cl)c5Cl)cc4)nn(C)c3n2)CC1 [Example 111, 2,3-Dichloro-N-(4-{1-methyl-6-[3-(4-methyl-piperazin-1-yl)-propylamino]-1H-pyrazolo[3,4-d]pyrimidin-3-yl]-phenyl}-benzenesulfonamide] |
| > 10 µM | 1 to 10 µM | CC(=O)NCCNc1ncc2c(-c3ccc(NS(=O)(=O)c4cccc(Cl)c4Cl)cc3)nn(C)c2n1 [Example 115, 2,3-Dichloro-N-{4-[1-methyl-6-(2-acetylamino-ethylamino)-1H-pyrazolo[3,4-d]pyrimidin-3-yl]-phenyl}-benzenesulfonamide] |
| > 10 µM | > 10 µM | Cn1nc(-c2ccc(NS(=O)(=O)c3cccc(Cl)c3Cl)cc2)c2cnc(NCCCn3ccnc3)nc21 [Example 116, 2,3-Dichloro-N-{4-[1-methyl-6-(3-imidazol-1-yl-propylamino)-1H-pyrazolo[3,4-d]pyrimidin-3-yl]-phenyl}-benzenesulfonamide] |
| – | 1 to 10 µM | Cn1cccc1CCNc1ncc2c(-c3ccc(NS(=O)(=O)c4cccc(Cl)c4Cl)cc3)nn(C)c2n1 [Example 117, 2,3-Dichloro-N-(4-{1-methyl-6-[2-(1-methyl-1H-pyrrol-2-yl)ethylamino]-1H-pyrazolo[3,4-d]pyrimidin-3-yl]-phenyl}-benzenesulfonamide] |
| > 10 µM | – | Cn1nc(-c2ccc(NS(=O)(=O)c3cccc(Cl)c3Cl)cc2)c2cnc(NC(CO)CO)nc21 [Example 118, 2,3-Dichloro-N-{4-[1-methyl-6-(2-hydroxy-1-hydroxymethyl-ethylamino)-1H-pyrazolo[3,4-d]pyrimidin-3-yl]-phenyl}-benzenesulfonamide] |
| 1 to 10 µM | > 10 µM | Cn1nc(-c2ccc(NS(=O)(=O)c3cccc(Cl)c3Cl)cc2)c2cnc(NCCCN)nc21 [Example 119, 2,3-Dichloro-N-{4-[1-methyl-6-(3-amino-propylamino)-1H-pyrazolo[3,4-d]pyrimidin-3-yl]-phenyl}-benzenesulfonamide] |
| 1 to 10 µM | – | Cn1nc(-c2ccc(NS(=O)(=O)c3cccc(Cl)c3Cl)cc2)c2cnc(NCCCCN)nc21 [Example 120, 2,3-Dichloro-N-{4-[1-methyl-6-(4-amino-butylamino)-1H-pyrazolo[3,4-d]pyrimidin-3-yl]-phenyl}-benzenesulfonamide] |
| 1 to 10 µM | > 10 µM | Cn1nc(-c2ccc(NS(=O)(=O)c3cccc(Cl)c3Cl)cc2)c2cnc(NCCCCNC(=N)N)nc21 [Example 121, 2,3-Dichloro-N-{4-[1-methyl-6-(4-guanidino-butylamino)-1H-pyrazolo[3,4-d]pyrimidin-3-yl]-phenyl}-benzenesulfonamide] |
| ≤ 0.0398 µM | – | Cn1nc(-c2ccc(NC(=O)Nc3cc(C(F)(F)F)ccc3F)c(F)c2)c2cnc(NCCCN3CCOCC3)nc21 [Example 127] |
| ≤ 0.0398 µM | – | CC1CCCCN1CCCNc1ncc2c(-c3ccc(NC(=O)Nc4cc(C(F)(F)F)ccc4F)c(F)c3)nn(C)c2n1 (centres unmarked) [Example 128] |
| ≤ 0.0398 µM | – | CCN(CC)CCCNc1ncc2c(-c3ccc(NC(=O)Nc4cc(C(F)(F)F)ccc4F)c(F)c3)nn(C)c2n1 [Example 129] |
| ≤ 0.0398 µM | – | CN1CCCC1CCNc1ncc2c(-c3ccc(NC(=O)Nc4cc(C(F)(F)F)ccc4F)c(F)c3)nn(C)c2n1 (centres unmarked) [Example 130] |
| ≤ 0.0398 µM | – | CN1CCN(CCCNc2ncc3c(-c4ccc(NC(=O)Nc5cc(C(F)(F)F)ccc5F)c(F)c4)nn(C)c3n2)CC1 [Example 131] |
| 0.0398 to 0.1 µM | 0.1 to 1 µM | Cn1nc(-c2ccc(NC(=O)Nc3cc(C(F)(F)F)ccc3F)cc2)c2cnc(NCCc3ccncc3)nc21 [Example 140, 1-(2-Fluoro-5-trifluoromethyl-phenyl)-3-{4-[(1-methyl-6-(2-pyridin-4-yl-ethylamino)-1H-pyrazolo[3,4-d]pyrimidin-3-yl]-phenyl]} urea] |
| 0.1 to 1 µM | > 10 µM | Cn1nc(-c2ccc(NC(=O)Nc3cc(C(F)(F)F)ccc3F)cc2)c2cnc(NCCc3cccnc3)nc21 [Example 141] |
| 0.1 to 1 µM | – | Cn1nc(-c2ccc(NC(=O)Nc3cc(C(F)(F)F)ccc3F)cc2)c2cnc(NCCc3ccccn3)nc21 [Example 142] |
| 0.1 to 1 µM | – | Cn1nc(-c2ccc(NC(=O)Nc3cc(C(F)(F)F)ccc3F)cc2)c2cnc(NCc3cccnc3)nc21 [Example 144, 1-(2-Fluoro-5-trifluoromethyl-phenyl)-3-{4-[(1-methyl-6-(pyridin-3-ylmethyl)-amino)-1H-pyrazolo[3,4-d]pyrimidin-3-yl]-phenyl} urea] |
| 1 to 10 µM | – | CCNc1ncc2c(-c3ccc(NC(=O)Nc4ccc(C(F)(F)F)cc4F)cc3)nn(C)c2n1 [Example 162] |
